Test: mn = molality of the nth substance listed, in mol/kg
Settings: 298.15 K, 101.3 kPa, Liquid, Frequency=0.0002 MHz, Alternating current cell with electrodes

C[C@H](CCC(=O)[O-])[C@H]1CC[C@H]2[C@@H]3[C@H](O)C[C@@H]4C[C@H](O)CC[C@]4(C)[C@H]3C[C@H](O)[C@]12C.[Na+] [sodium cholate] + O
Settings | electrical conductivity [S/m]
m1 = 0.00042 | 0.0033
m1 = 0.00083 | 0.0062
m1 = 0.00124 | 0.009
m1 = 0.00164 | 0.0118
m1 = 0.00205 | 0.0144
m1 = 0.00245 | 0.0171
m1 = 0.00284 | 0.0197
m1 = 0.00324 | 0.0225
m1 = 0.00363 | 0.025
m1 = 0.00401 | 0.0275
m1 = 0.0044 | 0.0299
m1 = 0.00478 | 0.0322
m1 = 0.00516 | 0.0345
m1 = 0.00553 | 0.0366
m1 = 0.0059 | 0.0388
m1 = 0.00627 | 0.0409
m1 = 0.00664 | 0.043
m1 = 0.007 | 0.0451
m1 = 0.00736 | 0.0473
m1 = 0.00772 | 0.0493
m1 = 0.00807 | 0.0512
m1 = 0.00842 | 0.0532
m1 = 0.00877 | 0.0553
m1 = 0.00912 | 0.0573
m1 = 0.00946 | 0.0591
m1 = 0.00981 | 0.061
m1 = 0.01015 | 0.063
m1 = 0.01048 | 0.0649
m1 = 0.01082 | 0.0668
m1 = 0.01115 | 0.0687
m1 = 0.01148 | 0.0706
m1 = 0.0118 | 0.0724
m1 = 0.01213 | 0.0743
m1 = 0.01245 | 0.0762
m1 = 0.01277 | 0.078
m1 = 0.01309 | 0.0798
m1 = 0.0134 | 0.0816
m1 = 0.01371 | 0.0834
m1 = 0.01402 | 0.0853
m1 = 0.01433 | 0.0871
m1 = 0.01464 | 0.0889
m1 = 0.01494 | 0.0906
m1 = 0.01524 | 0.0924
m1 = 0.01554 | 0.0942
m1 = 0.01584 | 0.0959
m1 = 0.01614 | 0.0976
m1 = 0.01643 | 0.0993
m1 = 0.01672 | 0.101
m1 = 0.01701 | 0.103
m1 = 0.0173 | 0.104

CCCCCCCCCCCCOS(=O)(=O)[O-].[Na+] [sodium dodecyl sulfate] + O
Settings | electrical conductivity [S/m]
m1 = 0.001 | 0.0071
m1 = 0.00201 | 0.0137
m1 = 0.00301 | 0.0209
m1 = 0.00401 | 0.0275
m1 = 0.00501 | 0.034
m1 = 0.00602 | 0.041
